# Measurements reported in US11084847B2, “Polyamide compound and use thereof” (SICHUAN KELUN-BIOTECH BIOPHARMACEUTICAL CO., LTD., priority 2016, dated 2021).
# Read-outs that look alike come from different tables or passages of the source.
# What was measured:
# [1] = biological target: T1, human κ-opioid receptor (KOR) (Homo sapiens, UniProt P41145); assay: κ-opioid receptor agonistic effect (inhibition of adenylate cyclase, cAMP assay); type: cell-based
# T1 construct: expressed in transfected cells
# Description: The efficacy of the compounds of the invention as κ-opioid receptor agonists was determined by measuring the ability of the compounds of Examples to inhibit adenylate cyclase activity.
# Cell culture: hamster ovary cells CHO stably expressing human κ-opioid receptor (KOR) gene were cultured in MEMα plus nucleosides medium (Invitrogen) containing 5% FBS.
# Stimulation: the test compound was 4-fold diluted in a gradient manner to obtain 11 concentrations, and 100 nl of each was transferred to a 384-well plate, and then a stimulating solution (5 uL) containing NKH477 (Tocris) was added; the cells were digested, re-suspended, and counted; and then the cells (5 uL) were added to wells, mixed gently, and incubated at 37° C. for 30 min.
# Detection: cAMP Assay Kit (Cisbio) was used, cAMP-D2 and Anti-cAMP-Cryptate were added separately, and the resultant mixture was incubated for 1 h at room temperature. The plate was read using envision (Perkin Elmer) and EC50 was obtained by means of fitting with a four-parameter equation.
# [2] = Pharmacokinetic (PK) study in rats; type: in vivo; conditions: male SD rats, intravenous, 1 mg/kg; for AUC(0-t) / Cmax / Vd / half-life: rat, plasma
# Description: The pharmacokinetic profile of the compounds of Examples was studied by intravenous administration of the compounds of Examples to male SD rats. The dose for IV administration was 1 mg/kg, and the solvent was 5% DMSO: 5% solutol: 90% physiological saline. After IV administration, blood samples were collected at different time points for PK study. Plasma were treated by protein precipitation and then analyzed by LC-MS/MS.
# In LC-MS/MS, mass spectrum was API 5500, and liquid chromatography was Shimadzu LC-30AD system. The column used for the test groups of Compound 3 and Compound 4 was Thermo C18 column (4.6 mm×100 mm, 3 μm); for mobile phases, phase A was water+0.1% formic acid, and phase B was methanol; the flow rate was 0.8 mL/min, and the column temperature was 40° C. The column used for the test group of Compound 5 was Agela AQ C18 column (2.1 mm×50 mm, 1.9 μm); for mobile phases, phase A was water+0.05% formic acid+5 mM acetic acid ammonium, and phase B was methanol+0.05% formic acid; the flow rate was 0.6 mL/min, and the column temperature was 40° C. The ion source used was the ESI source in positive ion mode, and the scanning mode was Multiple Reaction Monitoring (MRM).
# DOR = DOR (Homo sapiens, UniProt P41143); assay: Opioid receptor selectivity, radioligand competition binding (3H-DADLE) on cell membranes
# Description: (§1) The selectivity of the compounds of the invention for κ opioid receptors was determined by measuring the inhibitory effect of the compounds of Examples on the […] of KOR, MOR, and DOR.
# (§2) The compounds of Examples at different concentrations were incubated with the cell membrane with high expression of KOR, MOR, DOR and the corresponding radioligand (KOR: 3H-diprenophrine; MOR: 3H-DAMGO; DOR: 3H-DADLE) for 1 h, the compounds of Examples competed with the radioligands for binding to KOR, MOR, DOR. After the incubation, Cell harvest was used to collect cell membranes onto a Unifilter-96 GF/C filter plate, and the unbound radioligands were washed away. The plate was placed in a 50-degree oven for 1 h, and finally the scintillation solution Microscint 20 cocktail was added and the isotope signal was detected by MicroBeta2 Reader.
# (§3) According to the intensity of the isotope signal at different concentrations, the IC50 was calculated by means of fitting with a four-parameter equation, and the Ki value was calculated.
# (§4) The Ki value was calculated according to the formula Ki=IC50/(1+[radioligand]/Kd), and Kd was the equilibrium dissociation constant of radioligand.
# KOR = KOR (Homo sapiens, UniProt P41145); assay: Opioid receptor selectivity, radioligand competition binding (3H-diprenophrine) on cell membranes
# Description: as §1, §2, §3, §4
# male ICR mice = assay: Acetic acid-induced writhing test in mice; type: in vivo; set-up: ED50: unit not given here; conditions: for ED50: iv administration 15 min before 0.6% acetic acid ip, writhes counted within 15 min
# Description: The analgesic effect of the compound of the invention was evaluated by measuring the ED50 of the compounds of Examples in the acetic acid-induced writhing test in mice.
# The commercial glacial acetic acid solution was diluted with physiological saline to 0.6% glacial acetic acid solution. The male ICR mice were randomly separated into the drug group and the model group (to which physiological saline was administration). 15 minutes after iv administration, 0.6% acetic acid solution was intraperitoneally injected at 10 ml/kg, and the mice was immediately recorded with DV camera for 15 min. After the recording, the number of writhes of the mice within 15 min was counted from the video by blind method, the inhibition rate for the writhes was calculated according to Formula (I), and the ED50 of the compound was calculated according to Formula (II).
# (I) The inhibition rate for the writhes was calculated by the formula: Inhibition rate (%)=(the number of writhes in a model group−the number of writhes in a drug group)/the number of writhes in a model group*100.
# (II) The ED50 was calculated by the formula:
# [formula] wherein Xm was the logarithm of the highest dose, d was the difference in the logarithm of two adjacent doses, p was the inhibition rate for each dose group, pm was the highest-dose inhibition rate, and pn was the lowest-dose inhibition rate.
# MOR = MOR (Homo sapiens, UniProt P35372); assay: Opioid receptor selectivity, radioligand competition binding (3H-DAMGO) on cell membranes
# Description: as §1, §2, §3, §4
# [3] = CHO cells stably expressing human KOR, NKH477-stimulated cAMP, four-parameter fit, read-out: ED50 (the source's name)
# [4] = Ki=IC50/(1+[radioligand]/Kd), read-out: DOR Ki
# [5] = radioligand 3H-DADLE, 1 h incubation, read-out: DOR IC50
# [6] = Ki=IC50/(1+[radioligand]/Kd), read-out: KOR Ki
# [7] = radioligand 3H-diprenophrine, 1 h incubation, read-out: KOR IC50
# [8] = Ki=IC50/(1+[radioligand]/Kd), read-out: MOR Ki
# [9] = radioligand 3H-DAMGO, 1 h incubation, read-out: MOR IC50
Compound,"EC50 [1, 3]",pharmacokinetic profile (in words) [2],AUC(0-t) [2],Cmax [2],Vd [2],half-life [2],ED50 (male ICR mice),also measured
"CC(C)C[C@@H](NC(=O)[C@@H](Cc1ccccc1)NC(=O)[C@H](N)Cc1ccccc1)C(=O)N[C@H](CCCCNCC(=O)O)C(=O)N1CCC(N)(C(=O)O)CC1 [Example 17, 4-amino-1-((R)-2-((R)-2-((R)-2-((R)-2-amino-3-phenylpropanamido)-3-phenylpropanamido)-4-methylpentanamido)-6-((carboxymethyl)amino)hexanoyl)piperidin-4-carboxylic acid]",0.42 nM,,,,,,,
"COCCOCCNCCCC[C@@H](NC(=O)[C@@H](CC(C)C)NC(=O)[C@@H](Cc1ccccc1)NC(=O)[C@H](N)Cc1ccccc1)C(=O)N1CCC2(CC1)NC(=O)NC2=O [Example 23, 8-((R)-2-((R)-2-((R)-2-((R)-2-amino-3-phenylpropanamido)-3-phenylpropanamido)-4-methylpentanamido)-6-(2-(methoxyethoxy)ethylamino)hexanoyl)-1,3,8-triaza-spiro[4.5]decane-2,4-dione]",0.016 nM,,,,,,,
"COCCOCCOCCOCCOCCOCCOCCNCCCC[C@@H](NC(=O)[C@@H](CC(C)C)NC(=O)[C@@H](Cc1ccccc1)NC(=O)[C@H](N)Cc1ccccc1)C(=O)N1CCC(N)(C(=O)O)CC1 [Example 6, 4-amino-1-((R)-28-((R)-2-((R)-2-((R)-2-amino-3-phenylpropanamido)-3-phenylpropanamido)-4-methylpentanamido)-2,5,8,11,14,17,20-heptaoxa-23-azanonacosan-29-oyl)piperidin-4-carboxylic acid]",,good exposure amount and Cmax,2180 ng·h/mL,3660 ng/mL,0.2 L/kg,17.4 min,0.036,"EC50 [1]: 0.11 nM; IC50 (DOR): > 20000 nM; Ki (DOR): > 12000 nM; IC50 (KOR): 0.33 nM; Ki (KOR): 0.11 nM; KOR selectivity (in words) (KOR; KOR versus MOR and DOR binding): excellent KOR selectivity; analgesic effect (in words) (male ICR mice; acetic acid-induced writhing, mice, iv): significant analgesic effect; IC50 (MOR): > 20000 nM; Ki (MOR): > 7180 nM"
"CC(C)C[C@@H](NC(=O)[C@@H](Cc1ccccc1)NC(=O)[C@H](N)Cc1ccccc1)C(=O)N[C@H](CCCCNC(CO)CO)C(=O)N1CCC(N)(C(=O)O)CC1 [Example 8, 4-amino-1-((R)-2-((R)-2-((R)-2-((R)-2-amino-3-phenylpropanamido)-3-phenylpropanamido)-4-methylpentanamido)-6-((1,3-dihydroxypropan-2-yl)amino)hexanoyl)piperidin-4-carboxylic acid]",0.03 nM,,,,,,,
"CC(C)C[C@@H](NC(=O)[C@@H](Cc1ccccc1)NC(=O)[C@H](N)Cc1ccccc1)C(=O)N[C@H](CCCCNC[C@@H](O)CO)C(=O)N1CCC(N)(C(=O)O)CC1 [Example 1, 4-amino-1-((R)-2-((R)-2-((R)-2-((R)-2-amino-3-phenylpropanamido)-3-phenylpropanamido)-4-methylpentanamido)-6-(((R)-2,3-dihydroxypropyl)amino)hexanoyl)piperidin-4-carboxylic acid]",0.09 nM,,,,,,,
"COCCOCCNCCCC[C@@H](NC(=O)[C@@H](CC(C)C)NC(=O)[C@@H](Cc1ccccc1)NC(=O)[C@H](N)Cc1ccccc1)C(=O)N1C2CC1CN(CC(=O)O)C2 [Example 24, 2-(6-((R)-2-((R)-2-((R)-2-((R)-2-amino-3-phenylpropanamido)-3-phenylpropanamido)-4-methylpentanamido)-6-((2-(2-methoxyethoxy)ethyl)amino)hexanoyl)-3,6-diazabicyclo[3.1.1]heptan-3-yl)acetic acid]",0.005 nM,,,,,,,
"COCCOCCN(CCCC[C@@H](NC(=O)[C@@H](CC(C)C)NC(=O)[C@@H](Cc1ccccc1)NC(=O)[C@H](N)Cc1ccccc1)C(=O)N1CCC(N)(C(=O)O)CC1)CCOCCOC [Example 15, 4-amino-1-((R)-2-((R)-2-((R)-2-((R)-2-amino-3-phenylpropanamido)-3-phenylpropanamido)-4-methylpentanamido)-6-(di(2-(2-methoxyethoxy)ethyl)amino)hexanoyl)piperidin-4-carboxylic acid]",0.06 nM,,,,,,,
"CC(C)C[C@@H](NC(=O)[C@@H](Cc1ccccc1)NC(=O)[C@H](N)Cc1ccccc1)C(=O)N[C@H](CCCCNCCN)C(=O)N1CCC(N)(C(=O)O)CC1 [Example 3, 4-amino-1-((R)-2-((R)-2-((R)-2-((R)-2-amino-3-phenylpropanamido)-3-phenylpropanamido)-4-methylpentanamido)-6-((2-aminoethyl)amino)hexanoyl)piperidin-4-carboxylic acid]",0.06 nM,good exposure amount and Cmax,1790 ng·h/mL,2650 ng/mL,0.28 L/kg,20.4 min,0.041,Ki (DOR; [4]): > 12000 nM; IC50 (DOR; [5]): > 20000 nM; Ki (KOR; [6]): < 0.01 nM; IC50 (KOR; [7]): < 0.03 nM; Ki (MOR; [8]): > 7180 nM; IC50 (MOR; [9]): > 20000 nM
"CC(C)C[C@@H](NC(=O)[C@@H](Cc1ccccc1)NC(=O)[C@H](N)Cc1ccccc1)C(=O)N[C@H](CCCCNCCCN)C(=O)N1CCC(N)(C(=O)O)CC1 [Example 4, 4-amino-1-((R)-2-((R)-2-((R)-2-((R)-2-amino-3-phenylpropanamido)-3-phenylpropanamido)-4-methylpentanamido)-6-((3-aminopropyl)amino)hexanoyl)piperidin-4-carboxylic acid]",0.07 nM,good exposure amount and Cmax,2410 ng·h/mL,3590 ng/mL,0.74 L/kg,73.2 min,0.029,Ki (DOR; [4]): > 12000 nM; IC50 (DOR; [5]): > 20000 nM; Ki (KOR; [6]): < 0.01 nM; IC50 (KOR; [7]): < 0.03 nM; Ki (MOR; [8]): > 7180 nM; IC50 (MOR; [9]): > 20000 nM
"CC(C)C[C@@H](NC(=O)[C@@H](Cc1ccccc1)NC(=O)[C@H](N)Cc1ccccc1)C(=O)N[C@H](CCCCNC[C@H](O)CO)C(=O)N1CCC(N)(C(=O)O)CC1 [Example 2, 4-amino-1-((R)-2-((R)-2-((R)-2-((R)-2-amino-3-phenylpropanamido)-3-phenylpropanamido)-4-methylpentanamido)-6-(((S)-2,3-dihydroxypropyl)amino)hexanoyl)piperidin-4-carboxylic acid]",0.08 nM,,,,,,,
